Measurements from PubChem BioAssay AID651650 (Sanford-Burnham Center for Chemical Genomics, 2012).
Activity calls are given as the source filed them.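 Rule for the calls: active = mean IC50 below 20 µM in each of the two panels, so potent in both; inactive = the rest.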

Molecular target: Neuropilin-1 (Homo sapiens) (UniProt O14786)
Assay: NRP-1 b1b2 CendR peptide binding inhibitors, dose response, biochemical, FP and AlphaScreen panel (AID 651650)
Settings: NRP-1 b1b2 / RPARPAR peptide binding, FP or AlphaScreen
[1] = AlphaScreen, run 1, individual panel run IC50
[2] = FP, run 1, individual panel run IC50
[3] = FP, run 2, individual panel run IC50

Chain of Neuropilin-1 (Homo sapiens) (O14786 whole entry, looked up): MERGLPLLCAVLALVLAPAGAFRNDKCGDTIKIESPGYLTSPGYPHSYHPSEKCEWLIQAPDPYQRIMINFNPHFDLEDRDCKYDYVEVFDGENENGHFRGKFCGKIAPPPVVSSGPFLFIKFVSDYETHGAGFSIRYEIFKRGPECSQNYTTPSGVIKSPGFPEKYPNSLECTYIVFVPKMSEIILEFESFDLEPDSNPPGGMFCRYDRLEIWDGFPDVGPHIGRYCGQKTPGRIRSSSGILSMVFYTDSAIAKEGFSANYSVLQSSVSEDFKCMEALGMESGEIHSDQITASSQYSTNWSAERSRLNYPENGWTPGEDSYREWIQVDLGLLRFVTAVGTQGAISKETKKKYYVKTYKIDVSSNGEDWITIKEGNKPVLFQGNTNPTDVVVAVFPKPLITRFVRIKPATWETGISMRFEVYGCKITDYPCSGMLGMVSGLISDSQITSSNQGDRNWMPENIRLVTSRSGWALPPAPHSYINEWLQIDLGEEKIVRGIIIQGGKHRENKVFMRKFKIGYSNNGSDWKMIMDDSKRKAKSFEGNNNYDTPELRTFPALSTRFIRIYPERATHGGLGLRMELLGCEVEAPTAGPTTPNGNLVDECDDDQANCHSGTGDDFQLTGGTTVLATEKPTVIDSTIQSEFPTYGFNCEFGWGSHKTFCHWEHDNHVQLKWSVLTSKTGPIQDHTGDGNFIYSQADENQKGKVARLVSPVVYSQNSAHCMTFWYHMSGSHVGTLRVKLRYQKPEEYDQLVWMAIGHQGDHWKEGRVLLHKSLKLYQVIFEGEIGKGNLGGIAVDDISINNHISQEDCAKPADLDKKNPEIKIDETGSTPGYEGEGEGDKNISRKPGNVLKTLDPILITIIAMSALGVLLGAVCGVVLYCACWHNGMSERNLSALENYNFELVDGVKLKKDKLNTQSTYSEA

Row | Compound | IC50 (AlphaScreen, mean of runs) | IC50 [1] [µM] | IC50 (FP, mean of runs) | IC50 [2] [µM] | IC50 [3] [µM]
1 | Cc1cn([C@H]2C[C@H](O)[C@@H](CCC(=O)NCCc3ccc4ccccc4c3)O2)c(=O)[nH]c1=O | > 100 µM (inactive) | > 100 | > 95 µM (inactive) | > 95 | > 95
2 | CN(C(=O)COC(=O)c1cnc(Cl)c(Cl)c1)C1CCCCC1 | > 100 µM (inactive) | > 100 | > 95 µM (inactive) | > 95 | > 95
3 | O=C(NNC(=O)C1CCN(c2ncccn2)CC1)c1ccc(F)cc1 | > 100 µM (inactive) | > 100 | > 95 µM (inactive) | > 95 | > 95
4 | O=c1ccsn1Cc1ccccc1 | > 100 µM (inactive) | > 100 | > 95 µM (inactive) | > 95 | > 95
5 | O=S(=O)(c1ccccc1)c1nc(-c2ccc(F)cc2)oc1N1CCOCC1 | > 100 µM (inactive) | > 100 | > 95 µM (inactive) | > 95 | > 95
6 | O=S1(=O)CCOC[C@H](Cc2ccccc2)N1Cc1ccccc1F | > 100 µM (inactive) | > 100 | > 95 µM (inactive) | > 95 | > 95
7 | c1ccc(OCCCN2CCCC2)cc1 | > 100 µM (inactive) | > 100 | > 95 µM (inactive) | > 95 | > 95
8 | Cc1ccc(Cn2c(C(C)Nc3nc(-c4ccc(Cl)c([N+](=O)[O-])c4)cs3)nc3cc(C(F)(F)F)ccc32)cc1 (stereo not given) | > 100 µM (inactive) | > 100 | > 95 µM (inactive) | > 95 | > 95
9 | CCOc1c2ccc(C(=O)NCCc3cccs3)cc2nn1CC | > 100 µM (inactive) | > 100 | > 95 µM (inactive) | > 95 | > 95
10 | CCCCCc1c(-c2cccc(Cl)c2)ncn1CCc1ccccc1OC | > 100 µM (inactive) | > 100 | > 95 µM (inactive) | > 95 | > 95
11 | CCC(=O)Nc1nc2nc(-c3ccccc3)cc(-c3ccccc3)n2n1 | > 100 µM (inactive) | > 100 | > 95 µM (inactive) | > 95 | > 95
12 | COc1ccc(C(=O)N[C@H](C(=O)Nc2nc3c(s2)CCCC3)C(C)C)cc1 | > 100 µM (inactive) | > 100 | > 95 µM (inactive) | > 95 | > 95
13 | CN(C)CCOC(c1ccc(Cl)cc1)c1ccccn1 (stereo not given) | > 100 µM (inactive) | > 100 | > 95 µM (inactive) | > 95 | > 95
14 | O=C(O)c1cccc(N2C(=O)c3cc([N+](=O)[O-])cc4cc([N+](=O)[O-])cc(c34)C2=O)c1 | > 100 µM (inactive) | > 100 | > 95 µM (inactive) | > 95 | > 95
15 | CC(OC(=O)c1ccco1)C(=O)Nc1nc(-c2ccccc2)cs1 (stereo not given) | > 100 µM (inactive) | > 100 | > 95 µM (inactive) | > 95 | > 95
16 | COc1ccc(CCNC(=O)c2ccc(Cl)c(S(=O)(=O)N(C)c3ccccc3)c2)cc1 | > 100 µM (inactive) | > 100 | > 95 µM (inactive) | > 95 | > 95
17 | CCCc1c(C)nc(N2CCN(c3ccccc3OC)CC2)[nH]c1=O | > 100 µM (inactive) | > 100 | > 95 µM (inactive) | > 95 | > 95
18 | O=C(CSc1nc2ccc(Cl)cc2[nH]1)NCCc1ccccc1 | > 100 µM (inactive) | > 100 | > 95 µM (inactive) | > 95 | > 95
19 | C=CCn1c(SCC(=O)Nc2ncc(Cc3ccc(Br)cc3)s2)nnc1-c1ccncc1 | > 100 µM (inactive) | > 100 | > 95 µM (inactive) | > 95 | > 95
20 | O=C(O)CCCC(=O)N1CCc2cc(S(=O)(=O)N3CCc4ccccc43)ccc21 | > 100 µM (inactive) | > 100 | > 95 µM (inactive) | > 95 | > 95
21 | CCOCCCNC(=O)C(c1ccc(C)cc1)N(Cc1cccs1)C(=O)c1ccccc1O (stereo not given) | > 100 µM (inactive) | > 100 | > 95 µM (inactive) | > 95 | > 95
22 | CC(C)C[C@@H](COc1ccccc1)N1CCN(CCc2ccccc2)CCC1=O | > 100 µM (inactive) | > 100 | > 95 µM (inactive) | > 95 | > 95
23 | CC(C)c1ccc(S(=O)(=O)N2CCN(C(=O)CN3C(=O)c4ccccc4C3=O)CC2)cc1 | > 100 µM (inactive) | > 100 | > 95 µM (inactive) | > 95 | > 95

Row | Compound | IC50 (AlphaScreen, mean of runs) | IC50 [1] [µM] | IC50 (FP, mean of runs) | IC50 [2] [µM] | IC50 [3] [µM]
24 | O=C1CCN(Cc2ccccc2)S(=O)(=O)c2ccccc21 | > 100 µM (inactive) | > 100 | > 95 µM (inactive) | > 95 | > 95
25 | Cn1c(=NC(=O)COc2ccccc2)sc2ccccc21 | > 100 µM (inactive) | > 100 | > 95 µM (inactive) | > 95 | > 95
26 | Cc1ccc(Cl)c(NC(=O)CSc2cccc[n+]2[O-])c1Cl | > 100 µM (inactive) | > 100 | > 95 µM (inactive) | > 95 | > 95
27 | COc1ccc(-c2csc(Nc3cccnc3)n2)cc1 | > 100 µM (inactive) | > 100 | > 95 µM (inactive) | > 95 | > 95
28 | OCCC1CCCCN1CC(O)COCc1ccc(Cl)cc1 (stereo not given) | > 100 µM (inactive) | > 100 | > 95 µM (inactive) | > 95 | > 95
29 | FC(F)(F)C1CC(c2cccs2)Nc2ncnn21 (stereo not given) | > 100 µM (inactive) | > 100 | > 95 µM (inactive) | > 95 | > 95
30 | O=C(NCCOC(=O)c1ccccc1)c1ccccc1 | inactive | 45.3 | > 95 µM (inactive) | > 95 | > 95
31 | O=C(NCCCN1CCCC(O)C1)c1cc(COc2ccc(F)cc2F)on1 (stereo not given) | > 100 µM (inactive) | > 100 | > 95 µM (inactive) | > 95 | > 95
32 | NCCCC[C@H]1CN=C(N)N1CCC12CC3CC(CC(C3)C1)C2 | inactive | 50.2 | > 95 µM (inactive) | > 95 | > 95
33 | CCC1=C(OC(=O)N(CC)CC)N2C(=O)OC(=NCC3CC3)[C@]2(Cc2ccccc2)[C@H]2C1=CC[C@H]1C(=O)N(C)C(=O)[C@H]12 | > 100 µM (inactive) | > 100 | > 95 µM (inactive) | > 95 | > 95
34 | Cc1cc(C)cc(N(CCC(=O)O)S(=O)(=O)c2ccc3ccccc3c2)c1 | > 100 µM (inactive) | > 100 | > 95 µM (inactive) | > 95 | > 95
35 | O=C(O)c1ccccc1SCC(=O)N1CCCCC1 | > 100 µM (inactive) | > 100 | > 95 µM (inactive) | > 95 | > 95
36 | CNC(=O)Nc1ccccc1C(=O)NCc1ccccc1 | > 100 µM (inactive) | > 100 | > 95 µM (inactive) | > 95 | > 95
37 | CCOc1ccc(S(=O)(=O)N2CCN(C(=O)c3sccc3C)CC2)cc1 | 14.5 µM | 14.5 | > 95 µM (inactive) | > 95 | > 95
38 | C=CCN1C(=O)C2(C(C(=O)OCC)=C(N)Oc3ccccc32)c2c1c1ccccc1oc2=O (stereo not given) | > 100 µM (inactive) | > 100 | > 95 µM (inactive) | > 95 | > 95
39 | COc1cccc(N2[C@@H](CC(C)=O)c3ccc(/C=C/C(C)=O)cc3S2(=O)=O)c1 | > 100 µM (inactive) | > 100 | > 95 µM (inactive) | > 95 | > 95
40 | CC(=O)/C(=N\Nc1ccc(Cl)cc1Cl)Sc1cccc2cccnc12 | > 100 µM (inactive) | > 100 | > 95 µM (inactive) | > 95 | > 95
41 | O=c1[nH]c(Nc2ccccn2)cc2ccccc12 | 19.5 µM | 19.6 | > 95 µM (inactive) | > 95 | > 95
42 | O=C(O/N=C1/CCSc2ccccc21)c1ccccc1 | > 100 µM (inactive) | > 100 | > 95 µM (inactive) | > 95 | > 95
43 | O=C1CCC[C@@H]2Cc3nc4cc5c(cc4cc3[C@@H]3CCN1[C@H]23)OCO5 | > 100 µM (inactive) | > 100 | > 95 µM (inactive) | > 95 | > 95
44 | CCn1cc(C(=O)N2CCN(C(=O)c3ccco3)CC2)c2cc(OC)c(OC)cc2c1=O | inactive | 25.4 | > 95 µM (inactive) | > 95 | > 95
45 | Cc1ccccc1OCC1Cc2c(nc(N)c(C#N)c2N)O1 (stereo not given) | > 100 µM (inactive) | > 100 | > 95 µM (inactive) | > 95 | > 95
